Measurements reported in PubChem BioAssay (NCI).
Where “and” joins values, the source holds several entries; their conditions need not be identical. Equal values may be shown once.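 Tested at 5 concentrations; 48 h exposure; 96-well plates; endpoints linearly interpolated, else capped at highest concentration. GI50: concentration for 50% inhibition of growth. TGI denotes the concentration required for complete inhibition of growth.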

How the values were obtained:
Experiment in all cases: inhibition of tumour cell growth, NCI panel, 48 h
HCC-2998 colon = tested on: HCC-2998 colon
HL-60(TB) leukemia = tested on: HL-60(TB) leukemia
HT29 colon = tested on: HT29 colon
KM12 colon = tested on: KM12 colon
MDA-N = tested on: MDA-N
SF-268 CNS = tested on: SF-268 CNS
SF-539 CNS = tested on: SF-539 CNS
SK-MEL-28 melanoma = tested on: SK-MEL-28 melanoma
SNB-75 CNS = tested on: SNB-75 CNS
TK-10 renal = tested on: TK-10 renal

SMILES | TGI (HCC-2998 colon) | TGI (HL-60(TB) leukemia) [µM] | TGI (HT29 colon) | TGI (KM12 colon) | TGI (MDA-N) | TGI (SF-268 CNS) | TGI (SF-539 CNS) | TGI (SK-MEL-28 melanoma) | TGI (SNB-75 CNS) | TGI (TK-10 renal) | GI50 (HCC-2998 colon) | GI50 (SF-539 CNS) | GI50 (SK-MEL-28 melanoma) | GI50 (TK-10 renal)
COc1cc(-c2cc(=O)c3cc4c(cc3[nH]2)OCO4)cc(OC)c1O | > 10 µM | > 10 | > 10 µM | > 10 µM | > 10 µM | > 10 µM | > 10 µM | > 10 µM | > 10 µM | > 10 µM | – | – | – | –
Brc1ccc(CCNCCN2CCCCC2)cc1 | 27.7 µM | > 100 | 15.4 µM | 30.2 µM | 23.8 µM | 33.3 µM | 23.3 µM | 24.1 µM | 26.3 µM | 28.8 µM | – | – | – | –
CC1=C2C(=O)NN=C2CCN1c1ccc(Br)cc1 | – | > 100 | > 100 µM | > 100 µM | > 100 µM | > 100 µM | > 100 µM | > 100 µM | > 100 µM | > 100 µM | – | – | – | –
O=C(Nc1ccc(Br)cc1)c1c(-c2ccccc2)c2ccc(O)cc2oc1=O | > 10 µM | > 10 | > 10 µM | > 10 µM | > 10 µM | > 10 µM | > 10 µM | > 10 µM | > 10 µM | > 10 µM | – | – | – | –
CN(CCC#N)c1ccc(/C=C2\SC(=S)NC2=O)cc1 | > 100 µM | > 100 | > 100 µM | > 100 µM | > 100 µM | > 100 µM | > 100 µM | > 100 µM | > 100 µM | > 100 µM | – | – | – | –
COCOC1/C=C/CCCC#C[C@H](C)C(=O)CC1 (some centres not stated) | 28.9 µM | 5.12 | 13.6 µM | 17 µM | 24.3 µM | 26.5 µM | 30.4 µM | 29.4 µM | 25.3 µM | 28.6 µM | – | – | – | –
CC(=O)OCC1OC(OC(C)(C)CC/C=C(\C)[C@@H]2C/C=C(\C)CC/C=C(\C)CC2)C(O)C(O)C1OC(C)=O (some centres not stated) | > 100 µM and 35.9 µM | 67.3 | > 55.5 µM and 28.1 µM | > 59.7 µM and 36.8 µM | > 61.4 µM and 41.5 µM | 98.7 µM and 38.3 µM | 82.9 µM and 33.9 µM | > 100 µM and 40.6 µM | > 100 µM and 31.8 µM | > 100 µM and 38.3 µM | 69.8 µM and 17.9 µM | 32.6 µM and 13.5 µM | > 100 µM and 21.7 µM | > 100 µM and 20.6 µM
O=C(CN1c2ccccc2Sc2ccccc21)N1CCNCC1 | – | > 100 | > 100 µM | > 100 µM | > 100 µM | > 100 µM | > 100 µM | > 100 µM | > 100 µM | > 100 µM | – | – | – | –
CCOc1cc(NC(C)=O)ccc1C(=O)NNC(=O)c1ccccc1OC(C)=O | > 100 µM | > 42.2 | > 100 µM | > 100 µM | > 100 µM | > 100 µM | > 80.7 µM | > 100 µM | > 38.7 µM | 7.03 µM | – | – | – | –
O=C1/C(=C/c2ccccc2)N=C(c2ccccc2)N1n1c(-c2ccccc2)nc2ccccc2c1=O | > 100 µM | > 100 | > 100 µM | > 100 µM | > 100 µM | > 100 µM | > 100 µM | > 100 µM | > 100 µM | > 100 µM | – | – | – | –
